Broadly, the half-life is the time needed for the level to fall by half in the phase considered. For orientation: EC50 means the midpoint of the concentration-response curve. The Emax is the size of the effect at its maximum, as opposed to the concentration needed. One may read the AUC(0-t) as exposure summed from dosing to a finite time, without extrapolation to infinity. Read a high AUC(0-t) as more exposure. What is called bioavailability is the share of a dose that reaches the circulation, judged against a reference dose that is usually intravenous. As a reminder, the Cmax is the maximum level reached in the sampled fluid or tissue. For orientation: clearance means the rate of elimination divided by the concentration. A low value points to a low capacity for elimination.

The text below walks through data of ChEMBL document CHEMBL5053528, “Discovery of 2-(Ortho-Substituted Benzyl)-Indole Derivatives as Potent and Orally Bioavailable RORγ Agonists with Antitumor Activity” (J Med Chem, 2021).

Data set [1] in a line: Microsomal stability in rat liver microsomes assessed as half life. It counts as ADME, Microsome. On the technique in general: Liver microsomes are a subcellular fraction often used to study metabolism.
The nature of data set [2]: Microsomal stability in human liver microsomes assessed as half life. It counts as ADME, Microsome.
The target of data set [3] is T1, Nuclear receptor ROR-gamma (Homo sapiens, UniProt P51449).
T1 sequence (P51449 whole entry): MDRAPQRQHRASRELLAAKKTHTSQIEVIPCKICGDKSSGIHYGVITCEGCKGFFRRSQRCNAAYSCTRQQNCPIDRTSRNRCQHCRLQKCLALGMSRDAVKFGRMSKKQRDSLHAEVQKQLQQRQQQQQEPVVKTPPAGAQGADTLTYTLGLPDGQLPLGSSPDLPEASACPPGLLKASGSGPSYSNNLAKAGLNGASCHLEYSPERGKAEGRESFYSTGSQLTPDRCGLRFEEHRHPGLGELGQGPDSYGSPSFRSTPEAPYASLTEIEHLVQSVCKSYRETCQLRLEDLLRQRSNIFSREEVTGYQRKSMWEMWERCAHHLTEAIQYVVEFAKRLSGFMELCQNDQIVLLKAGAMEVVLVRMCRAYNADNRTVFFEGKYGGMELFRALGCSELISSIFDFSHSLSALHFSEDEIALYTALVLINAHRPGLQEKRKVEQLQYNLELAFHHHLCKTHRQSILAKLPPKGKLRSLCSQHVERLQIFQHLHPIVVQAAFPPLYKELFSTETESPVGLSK
As to the kind of experiment: Antagonist activity at N-terminal GST tagged human RORgamma LBD using fluorescein-D22 as coactivator incubated for 60 mins by Lanthascreen TR-FRET assay. On the technique in general: In TR-FRET formats the signal depends on donor and acceptor labels being close together.

The target of data set [4] is T1, Nuclear receptor ROR-gamma. Description: Agonist activity at N-terminal GST tagged human RORgamma LBD using fluorescein-D22 as coactivator incubated for 60 mins by Lanthascreen TR-FRET assay.
The target in data set [5] is T1, Nuclear receptor ROR-gamma. Description: Agonist activity at human RORgamma in cytostim stimulated human PBMC cells assessed as increase in differentiation of TH17 cells by measuring IL-17 production preincubated with cytostim for 72 hrs by ELISA. It counts as cell-based.
For data set [6], the target named is T2, Nuclear receptor ROR-gamma (Homo sapiens) (UniProt P51449).
T2 sequence (whole entry): T1 sequence (P51449 whole entry)
Description: Inverse agonist activity at human RORgamma in cytostim stimulated human PBMC cells assessed as […] in IL-17 production by measuring maximal efficacy preincubated with cytostim for 72 hrs by ELISA relative to control. It counts as cell-based. As to conditions: filed as inverse agonist. For orientation: ELISA stands for enzyme-linked immunosorbent assay.

Data set [7] addresses T1, Nuclear receptor ROR-gamma. Description: Antagonist activity at human RORgamma in cytostim stimulated human PBMC cells assessed as decrease in differentiation of TH17 cells by measuring IL-17 production preincubated with cytostim for 72 hrs by ELISA. It counts as cell-based.
Data set [8] concerns the target T2, Nuclear receptor ROR-gamma (Homo sapiens). As to the kind of experiment: Partial agonist activity at human RORgamma in cytostim stimulated human PBMC cells assessed as increase in IL-17 production by measuring maximal efficacy preincubated with cytostim for 72 hrs by ELISA relative to control. It counts as cell-based. As to conditions: filed as partial agonist.

The target of data set [9] is T1, Nuclear receptor ROR-gamma. Description: Partial agonist activity at human RORgamma in cytostim stimulated human PBMC cells assessed as […] in differentiation of TH17 cells by measuring IL-17 production preincubated with cytostim for 72 hrs by ELISA. It counts as cell-based.
Data set [10] is described as follows: Volume of distribution in dog at 0.5 mg/kg, iv. It counts as ADME, organism-based, Canis lupus familiaris. As to conditions: in vivo.
Data set [11] in a line: Volume of distribution in mouse at 2 mg/kg, po. It counts as ADME, organism-based. The conditions noted are these: in vivo.
A short description of data set [12]: Volume of distribution in dog at 2 mg/kg, po. It counts as ADME, organism-based, Canis lupus familiaris. The conditions noted are these: in vivo.
Data set [13] can be described thus: AUC (0 to t) in dog at 2 mg/kg, po. It counts as ADME, organism-based, Canis lupus familiaris. More on the design: dose 2 mg/kg, route po. The conditions noted are these: in vivo.
Data set [14] in a line: Oral bioavailability in rat. It counts as ADME, organism-based. As to conditions: in vivo.
The nature of data set [15]: AUC (0 to t) in mouse at 1 mg/kg, iv. Set-up: dose 1 mg/kg, route iv. It counts as ADME, organism-based. The conditions noted are these: in vivo.
A short description of data set [16]: Cmax in mouse at 2 mg/kg, po. It counts as ADME, organism-based. More on the design: dose 2 mg/kg, route po. The conditions noted are these: in vivo.
Data set [17] can be described thus: Half life in mouse at 2 mg/kg, po. It counts as ADME, organism-based. The conditions noted are these: in vivo.
Data set [18] is described as follows: Oral bioavailability in dog. It counts as ADME, organism-based, Canis lupus familiaris. As to conditions: in vivo.
Data set [19] is described as follows: AUC (0 to t) in rat at 1 mg/kg, iv. It counts as ADME, organism-based. More on the design: dose 1 mg/kg, route iv. As to conditions: in vivo.
Data set [20] can be described thus: Volume of distribution in rat at 1 mg/kg, iv. It counts as ADME, organism-based. As to conditions: in vivo.
Data set [21] is described as follows: AUC (0 to t) in dog at 0.5 mg/kg, iv. It counts as ADME, organism-based, Canis lupus familiaris. Set-up: dose 0.5 mg/kg, route iv. As to conditions: in vivo.
Data set [22] can be described thus: Half life in mouse at 1 mg/kg, iv. It counts as ADME, organism-based. The conditions noted are these: in vivo.
Data set [23] can be described thus: Volume of distribution in mouse at 1 mg/kg, iv. It counts as ADME, organism-based. The conditions noted are these: in vivo, read-out: Vd.
A short description of data set [24]: AUC (0 to t) in rat at 2 mg/kg, po. It counts as ADME, organism-based. The conditions noted are these: in vivo. Set-up: dose 2 mg/kg, route po.
A short description of data set [25]: Cmax in rat at 2 mg/kg, po. It counts as ADME, organism-based. As to conditions: in vivo. More on the design: dose 2 mg/kg, route po.
Data set [26] in a line: Cmax in dog at 2 mg/kg, po. It counts as ADME, organism-based, Canis lupus familiaris. More on the design: dose 2 mg/kg, route po. The conditions noted are these: in vivo.
Data set [27] is described as follows: Half life in dog at 2 mg/kg, po. It counts as ADME, organism-based, Canis lupus familiaris. The conditions noted are these: in vivo.
Data set [28] in a line: Clearance in dog at 0.5 mg/kg, iv. It counts as ADME, organism-based, Canis lupus familiaris. As to conditions: in vivo.
Data set [29] can be described thus: Clearance in mouse at 1 mg/kg, iv. As to conditions: in vivo. It counts as ADME, organism-based.
The nature of data set [30]: Drug metabolism in rat plasma assessed as amide hydrolysis metabolite formation at 1 mg/kg, iv. It counts as ADME, organism-based. The conditions noted are these: in vivo.
A short description of data set [31]: Drug metabolism in dog plasma assessed as amide hydrolysis metabolite formation at 1 mg/kg, iv. It counts as ADME, organism-based, Canis lupus familiaris. The conditions noted are these: in vivo.
Data set [32] can be described thus: Drug metabolism in rat liver microsomes assessed as amide hydrolysis metabolite formation at 1 mg/kg, iv. It counts as ADME, Microsome.
A short description of data set [33]: Half life in dog at 0.5 mg/kg, iv. It counts as ADME, organism-based, Canis lupus familiaris. As to conditions: in vivo.
Data set [34] can be described thus: Drug metabolism in dog liver microsomes assessed as amide hydrolysis metabolite formation at 1 mg/kg, iv. It counts as ADME, Canis lupus familiaris, Microsome.
Data set [35] in a line: Oral bioavailability in mouse. It counts as ADME, organism-based. The conditions noted are these: in vivo.
Data set [36] in a line: AUC (0 to t) in mouse at 2 mg/kg, po. It counts as ADME, organism-based. Set-up: dose 2 mg/kg, route po. As to conditions: in vivo.
Data set [37] is described as follows: Half life in rat at 1 mg/kg, iv. It counts as ADME, organism-based. The conditions noted are these: in vivo.
Data set [38] is described as follows: Clearance in rat at 1 mg/kg, iv. The conditions noted are these: in vivo. It counts as ADME, organism-based.

Turning to `CCS(=O)(=O)c1ccc(CNC(=O)c2ccc3c(c2)cc(Cc2ccc(Cl)cc2C(F)(F)F)n3C2CC2)cc1`, the half-life in [1] is 102 min; in data set [2] it was 139 min.
In the case of `CCS(=O)(=O)c1ccc(CNC(=O)c2ccc3c(c2)cc(Cc2ccccc2)n3C(C)C)cc1`, the EC50 in data set [3] is 683 nM.
`CCS(=O)(=O)c1ccc(CNC(=O)c2ccc3c(c2)cc(Cc2ccccc2Br)n3C(C)C)cc1`: the half-life in data set [1] was 12 min; in [2] it was 15 min.
On to `CCS(=O)(=O)c1ccc(CNC(=O)c2ccc3c(c2)cc(Cc2ccc(Cl)cc2C(F)(F)F)n3C(C)C)cc1`, for which the figures for the EC50 in data set [4] and in [5] were 11 nM and 8 nM, respectively. In addition, the results for the half-life in data set [1] and in data set [2] were 116 min and 182 min, respectively.
For the compound `CCS(=O)(=O)c1ccc(CNC(=O)c2ccc3c(c2)cc(Cc2ccc(C(F)(F)F)cc2)n3C(C)C)cc1`, the EC50 is 150 nM in data set [3] and 109 nM in [7]. Moreover, the Emax in data set [6] was determined as 109%.
For the compound `CCS(=O)(=O)c1ccc(CNC(=O)c2ccc3c(c2)cc(Cc2ccccc2C)n3C(C)C)cc1`, the EC50 in [3] is 44 nM.
With `CCS(=O)(=O)c1ccc(CNC(=O)c2ccc3c(c2)cc(Cc2ccccc2C(F)(F)F)n3C(C)C)cc1`, the half-life in data set [1] worked out at 43 min; in [2], 39 min.
Take `CCc1ccccc1Cc1cc2cc(C(=O)NCc3ccc(S(=O)(=O)CC)cc3)ccc2n1C(C)C`: the EC50 in data set [4] worked out at 25 nM; in [9], 2 nM. The Emax in data set [8] was 79%. The results for the half-life in data set [1] and in data set [2] were 12 min and 13 min, respectively.
Take `CCS(=O)(=O)c1ccc(CNC(=O)c2ccc3c(c2)cc(Cc2ccc(Cl)cc2C(F)(F)F)n3CCF)cc1`: the Vd in [10] was 2.05 L/kg; in [11], 0.569 L/kg; in data set [12], 73.7 L/kg; in data set [20], 4.48 L/kg; in data set [23], 0.193 L/kg. In addition, the exposure AUC(0-t) in [13] was 103 ng·h/mL; in data set [15], 20000 ng·h/mL; in data set [19], 277 ng·h/mL; in [21] it was 309 ng·h/mL; in [24], 3.73 ng·h/mL; in data set [36] it was 18900 ng·h/mL. Also, the bioavailability turned out to be 0.673% in [14], 8.33% in data set [18] and 47.3% in data set [35]. In addition, the 50% effective concentration (EC50) in data set [4] and in data set [5] was 2 nM throughout. Also, the values for the Cmax in [16], in data set [25] and in data set [26] were 3270 ng/mL, 6.4 ng/mL and 55.9 ng/mL, respectively. Also, the half-life was 223 min in data set [17]; 160 min in [22]; 126 min in data set [1]; 128 min in data set [27]; 52.6 min in data set [33]; 173 min in [2]. This compound had a half-life in data set [37] of 51.6 min. Further, the figures for the clearance in data set [28], in data set [29] and in [38] were 27.2 mL/min/kg, 0.834 mL/min/kg and 60.2 mL/min/kg, respectively. Moreover, the Drug metabolism entry in data set [30], in data set [31], in data set [32] and in [34] was “Metabolite_Detected” in each case.
For the compound `CCS(=O)(=O)c1ccc(CNC(=O)c2ccc3c(c2)cc(Cc2cccc(C(F)(F)F)c2)n3C(C)C)cc1`, the concentration for a half-maximal effect (EC50) in [3] was 10 nM; in data set [7], 19 nM. Also, the Emax in data set [6] turned out to be 93%. The half-life in data set [1] worked out at 19 min; in [2], 20 min.
Turning to `CCS(=O)(=O)c1ccc(CNC(=O)c2ccc3c(c2)cc(Cc2ccc(F)cc2C(F)(F)F)n3C(C)C)cc1`, the EC50 in [4] stood at 14 nM; in data set [5] it was 17 nM. The half-life came to 64 min in data set [1] and 72 min in data set [2].
For the compound `CCS(=O)(=O)c1ccc(CNC(=O)c2ccc3c(c2)cc(Cc2ccccc2OC)n3C(C)C)cc1`, the values for the half-life in data set [1] and in [2] were 12 min and 13 min, respectively.
